We go through 17 molecules from ChEMBL document CHEMBL4680187, “Optimization of EphA2 antagonists based on a lithocholic acid core led to the identification of UniPR505, a new 3α-carbamoyloxy derivative with antiangiogenetic properties” (Eur J Med Chem, 2020).

In general, IC50 refers to the concentration that inhibits the measured activity by half.

Activity calls are given as the source filed them. The rule behind the calls is not given here.

The target of one series is Ephrin type-A receptor 2 (Mus musculus, UniProt Q03145). Description: Displacement of biotinylated ephrin-A1-Fc from recombinant mouse c-terminal His6-tagged EphA2 Fc (Ala22 to Ala535 residues) preincubated for 1 hr followed by ephrin-A1-FC addition and measured after 4 hrs by ELISA. A general note: ELISA stands for enzyme-linked immunosorbent assay.
Sequence of Ephrin type-A receptor 2 (Q03145 whole entry): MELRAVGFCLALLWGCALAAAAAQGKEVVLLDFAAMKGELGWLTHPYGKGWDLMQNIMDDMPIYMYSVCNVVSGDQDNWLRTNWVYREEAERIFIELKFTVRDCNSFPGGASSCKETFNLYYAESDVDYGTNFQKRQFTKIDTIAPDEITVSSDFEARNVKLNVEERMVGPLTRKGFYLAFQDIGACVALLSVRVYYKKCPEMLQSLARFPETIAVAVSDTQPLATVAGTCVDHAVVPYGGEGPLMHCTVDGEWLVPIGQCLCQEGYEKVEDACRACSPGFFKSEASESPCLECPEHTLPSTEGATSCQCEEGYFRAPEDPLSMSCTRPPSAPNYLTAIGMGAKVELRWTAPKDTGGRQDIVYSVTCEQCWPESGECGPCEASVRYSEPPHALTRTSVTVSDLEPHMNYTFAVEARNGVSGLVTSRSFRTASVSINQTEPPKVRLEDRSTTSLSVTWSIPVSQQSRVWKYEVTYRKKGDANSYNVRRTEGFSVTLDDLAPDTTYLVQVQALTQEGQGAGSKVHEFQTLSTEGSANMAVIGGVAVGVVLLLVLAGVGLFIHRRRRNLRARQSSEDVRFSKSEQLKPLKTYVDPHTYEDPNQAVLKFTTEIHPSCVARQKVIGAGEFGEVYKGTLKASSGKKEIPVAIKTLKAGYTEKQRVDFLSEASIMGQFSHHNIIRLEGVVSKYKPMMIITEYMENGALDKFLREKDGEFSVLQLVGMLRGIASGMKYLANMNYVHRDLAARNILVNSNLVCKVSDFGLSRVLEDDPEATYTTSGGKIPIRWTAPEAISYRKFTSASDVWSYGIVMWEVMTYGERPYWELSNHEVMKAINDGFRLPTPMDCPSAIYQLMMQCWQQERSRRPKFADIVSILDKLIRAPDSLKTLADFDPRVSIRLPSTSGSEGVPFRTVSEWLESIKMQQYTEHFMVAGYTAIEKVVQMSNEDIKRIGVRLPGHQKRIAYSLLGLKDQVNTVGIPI
Another series has as its system PC-3. Description: Cytotoxicity against human PC3 cells after 2 hrs by LDH assay. Type of series: cell-based. The following applies: pc-3, 2 h.
For a further series, the system named is Chorioallantoic membrane. Description: Antiangiogenic activity in Leghorn chicken fertilized egg chorioallantoic membrane assessed as reduction in unstimulated neovascularization at 10 uM measured after 3 days by CAM assay. Type of series: functional, tissue-based. To be noted: Gallus gallus, time 3.0 day.

Consider `C[C@H](CCC(=O)O)[C@H]1CC[C@H]2[C@@H]3CC[C@@H]4C[C@@H](OC(N)=O)CC[C@]4(C)[C@H]3CC[C@]12C`, for which the IC50 on Ephrin type-A receptor 2 worked out at 9.1 µM.

In the case of `C[C@H](CCC(=O)N[C@H](CC(=O)O)Cc1c[nH]c2ccccc12)[C@H]1CC[C@H]2[C@@H]3CC[C@@H]4C[C@@H](OC(N)=O)CC[C@]4(C)[C@H]3CC[C@]12C`, the IC50 at Ephrin type-A receptor 2 worked out at 5.2 µM.

For the molecule `CCCCCCNC(=O)O[C@@H]1CC[C@@]2(C)[C@H](CC[C@@H]3[C@@H]2CC[C@]2(C)[C@@H]([C@H](C)CCC(=O)O)CC[C@@H]32)C1`, the IC50 at Ephrin type-A receptor 2 worked out at 3.3 µM.

As to `CCCCNC(=O)O[C@@H]1CC[C@@]2(C)[C@H](CC[C@@H]3[C@@H]2CC[C@]2(C)[C@@H]([C@H](C)CCC(=O)O)CC[C@@H]32)C1`, at Ephrin type-A receptor 2, the IC50 stood at 3.7 µM.

As for `C[C@H](CCC(=O)N[C@H](CC(=O)O)Cc1c[nH]c2ccccc12)[C@H]1CC[C@H]2[C@@H]3CC[C@@H]4C[C@H](OC(=O)Nc5ccccc5)CC[C@]4(C)[C@H]3CC[C@]12C`, the 50% inhibitory concentration (IC50) at Ephrin type-A receptor 2 was 5.5 µM.

In the case of `CC(C)NC(=O)O[C@@H]1CC[C@@]2(C)[C@H](CC[C@@H]3[C@@H]2CC[C@]2(C)[C@@H]([C@H](C)CCC(=O)N[C@H](CC(=O)O)Cc4c[nH]c5ccccc45)CC[C@@H]32)C1`, the IC50 at Ephrin type-A receptor 2 amounted to 7.1 µM.

Consider `C[C@H](CCC(=O)O)[C@H]1CC[C@H]2[C@@H]3CC[C@@H]4C[C@H](OC(=O)NC5CCCCC5)CC[C@]4(C)[C@H]3CC[C@]12C`, for which the IC50 on Ephrin type-A receptor 2 is 2.7 µM.

Turning to `CCCCCCCCNC(=O)O[C@@H]1CC[C@@]2(C)[C@H](CC[C@@H]3[C@@H]2CC[C@]2(C)[C@@H]([C@H](C)CCC(=O)O)CC[C@@H]32)C1`, the IC50 at Ephrin type-A receptor 2 is 4.5 µM.

As for `C[C@H](CCC(=O)N[C@H](CC(=O)O)Cc1c[nH]c2ccccc12)[C@H]1CC[C@H]2[C@@H]3CC[C@@H]4C[C@H](OC(=O)NC5CCCCC5)CC[C@]4(C)[C@H]3CC[C@]12C`, the IC50 at Ephrin type-A receptor 2 is 1.2 µM. In addition, the Activity entry in the series with PC-3 was “Non-Toxic”.

As to `C[C@H](CCC(=O)O)[C@H]1CC[C@H]2[C@@H]3CC[C@@H]4C[C@H](OC(=O)Nc5ccccc5)CC[C@]4(C)[C@H]3CC[C@]12C`, the IC50 on Ephrin type-A receptor 2 was 38 µM.

As to `C[C@H](CCC(=O)O)[C@H]1CC[C@H]2[C@@H]3CC[C@@H]4C[C@H](OC(N)=O)CC[C@]4(C)[C@H]3CC[C@]12C`, the IC50 at Ephrin type-A receptor 2 was 17 µM.

Consider `CCNC(=O)O[C@@H]1CC[C@@]2(C)[C@H](CC[C@@H]3[C@@H]2CC[C@]2(C)[C@@H]([C@H](C)CCC(=O)O)CC[C@@H]32)C1`, for which the IC50 at Ephrin type-A receptor 2 came out at 30 µM.

In the case of `CCCCCCCCNC(=O)O[C@@H]1CC[C@@]2(C)[C@H](CC[C@@H]3[C@@H]2CC[C@]2(C)[C@@H]([C@H](C)CCC(=O)N[C@H](CC(=O)O)Cc4c[nH]c5ccccc45)CC[C@@H]32)C1`, the IC50 at Ephrin type-A receptor 2 was 15 µM.

As for `C[C@H](CCC(=O)N[C@H](CC(=O)O)Cc1c[nH]c2ccccc12)[C@H]1CC[C@H]2[C@@H]3CC[C@@H]4C[C@H](OC(N)=O)CC[C@]4(C)[C@H]3CC[C@]12C`, the IC50 on Ephrin type-A receptor 2 is 1.2 µM. Moreover, the result with Chorioallantoic membrane was inactive. Also, the Activity result with PC-3 is “Non-Toxic”.

Turning to `CCCCNC(=O)O[C@@H]1CC[C@@]2(C)[C@H](CC[C@@H]3[C@@H]2CC[C@]2(C)[C@@H]([C@H](C)CCC(=O)N[C@H](CC(=O)O)Cc4c[nH]c5ccccc45)CC[C@@H]32)C1`, the IC50 at Ephrin type-A receptor 2 was 1.1 µM. Also, in the series with PC-3, the Activity entry was “Non-Toxic”.

As for `CC(C)NC(=O)O[C@@H]1CC[C@@]2(C)[C@H](CC[C@@H]3[C@@H]2CC[C@]2(C)[C@@H]([C@H](C)CCC(=O)O)CC[C@@H]32)C1`, the IC50 at Ephrin type-A receptor 2 turned out to be 12 µM.

Consider `CCCCCCNC(=O)O[C@@H]1CC[C@@]2(C)[C@H](CC[C@@H]3[C@@H]2CC[C@]2(C)[C@@H]([C@H](C)CCC(=O)N[C@H](CC(=O)O)Cc4c[nH]c5ccccc45)CC[C@@H]32)C1`, for which the IC50 at Ephrin type-A receptor 2 stood at 1.5 µM. Besides, the Activity entry with PC-3 was “Non-Toxic”.
